Source: patent US20160178584A1, “METHODS FOR DIAGNOSING AND ASSESSING KIDNEY DISEASE” (THE REGENTS OF THE UNIVERSITY OF CALIFORNIA, priority 2010, published 2016)

Legend:
[1] = tested on: subjects with diabetic nephropathy; assay: Randomized double-blind, placebo-controlled exploratory trial of pirfenidone: eGFR change (primary endpoint); assay type: in vivo, human; details: for eGFR Change, with imputation: 54 weeks, completers plus subjects who began dialysis, end-of-study eGFR imputed as 10 ml/min per 1.73 m2; for eGFR Change: over 54 weeks, 52 study completers, mean ± SD
Protocol: Pirfenidone is an orally-available anti-fibrotic agent that has shown efficacy in animal models of diabetic nephropathy and human focal segmental glomerulosclerosis. A randomized double-blind, placebo-controlled exploratory trial of pirfenidone was performed in subjects with diabetic nephropathy with elevated albuminura and reduced glomerular filtration rate (eGFR) (20-75 ml/min per 1.73 m^2). The pre-specified primary outcome was eGFR change after one year of therapy. 78 subjects were randomly allocated to placebo (n=27), pirfenidone 1200 mg/d (n=26), or pirfenidone 2400 mg/d (n=25). 52 subjects completed the study. During the course of the study, eGFR increased with pirfenidone 1200 mg/d [+3.3±8.5 ml/min per 1.73 m^2 (mean±SD)], whereas eGFR fell with placebo (−2.2±4.8 ml/min per 1.73 m^2, p<0.03 versus pirfenidone 1200 mg/d) and with pirfenidone 2400 mg/d (−1.9±6.7 ml/min per 1.73 m^2, P=0.25 versus placebo). Of the initial 77 subjects, 5 initiated hemodialysis during the study: 4 in the placebo group, 0 in the pirfenidone 1200 mg group and 1 in the pirfenidone 2400 mg group (P=0.25). Baseline serum albumin levels were statistically associated with eGFR improvement in the entire cohort (p=0.001) and in the pirfenidone 2400 group (+0.9 [95% CI 0.7 to 1.1], p=0.03).
The study protocol was approved by the institutional review boards of the participating centers and all patients provided written consent. Trial sites were Thomas Jefferson University, Philadelphia, Pa.; the Mayo Clinic, Rochester, Minn.; and the NIH Clinical Center, Bethesda, Md. At the pre-study evaluation, the potential study candidates provided a medical history and underwent a complete physical examination, including clinical laboratory determinations and the measurement of vital signs. Entry criteria included a history of type 1 or type 2 diabetes, eGFR 20-75 ml/min/1.73 m2, microalbuminuria or overt proteinuria, blood pressure <140/90 mm Hg on an a ACEi, ARB or the combination, if tolerated. Exclusion criteria included other causes of kidney disease, history of photosensitivity rash, and liver disease. A stratified block randomization scheme was used to maximize the balance of patients with type 1 and type 2 diabetes assigned to each treatment group, using randomization blocks of size 4.
(§1) Eligible subjects were randomly assigned to receive pirfenidone 1200 mg daily, pirfenidone 2400 mg daily, or placebo for 54 weeks. Subjects received two 400 mg capsules of pirfenidone three times, one capsule of pirfenidone and one capsule of placebo three times daily), or two capsules of placebo three times daily. […] If symptoms persisted, the dose was kept at the lowest tolerable dose (but not less than 50% of original dose) if the subject desired to continue in the protocol.
(§2) The primary endpoint was eGFR change from baseline to end of study. Baseline eGFR was determined from two serum creatinine measurements within 3 weeks prior to starting study drug. End of study eGFR was determined from two serum creatinine measurements at week 52 and week 54, prior to stopping study medication. Serum creatinine was measured by the Jaffe method separately at each clinic site laboratory. eGFR was determined by the 4-variable Modification of Diet in Renal Disease Study equation 37. Secondary endpoints included the change in urine ACR and the change in urine TGF-[…]/urine creatinine.
The pre-specified primary endpoint analysis was the eGFR change, compared between each pirfenidone treatment group with placebo group using the Student t-test. […]

[2] = tested on: subjects with diabetic nephropathy; assay: Pirfenidone trial, secondary outcomes: urine albumin/creatinine ratio and urine TGF-beta; assay type: in vivo, human
Protocol: as §2
(§3) Biomarkers were analyzed in plasma and urine from samples collected at both baseline visits and both end-of-study visits, with the two results averaged. Plasma biomarkers were measured by MesoScale Discovery (MSD) platform at the UCSD Clinical Translational Research Institute (CTRI) facility. The MSD platform uses electrochemiluminescence tags on specific antibodies that emit light when electrochemically stimulated. The specific blood biomarkers measured were interferon-y (IFNy), interleukin 1 (IL-1), tumor necrosis factor (TNF), soluble TNF receptor 1 (S TNF R1), YKL40 (also called chitinase like protein or human cartilage glycoprotein-39), brain natriuretic peptide (BNP), and TGF-beta1. Fibroblast growth factor 23 (FGF23) was measured by a C-terminal ELISA assay (Immutopics, San Clemente, Calif.). Urine biomarkers included urine TGF-beta1 (measured by Quantikine, R&D Biosystems, as previously described 29). Urine albumin was measured by nephelometry and urine creatinine was measured by the Jaffe method.
The pre-specified primary endpoint analysis was the eGFR change, compared between each pirfenidone treatment group with placebo group using the Student t-test. Secondary endpoints (ACR change and urine TGF-beta1 change[…]s were similarly evaluated. When one of the two visits was missing, a single observation was used. Due to missing data the assumption that the data points arose from an identical distribution (equal variance) was put in question. Therefore, in addition to the two-sample t-tests, we also performed permutation tests with 10,000 permutations of the treatment assignments, as well as an analysis of covariance (ANCOVA) 38 with iterated re-weighted least-squares (IWLS) 39 as confirmatory analyses. Data are presented as mean±SD for normally distributed variables, and medians and interquartile ranges for skewed variables.

[3] = tested on: subjects with diabetic nephropathy; assay: Pirfenidone trial: changes in plasma biomarkers of inflammation and fibrosis; assay type: in vivo, human; details: for Change in IFN gamma / Change in Plasma TGF Beta / Change in TNF α / Change in YKL40 / Change in BNP / Change in FGF23 / Change in IL1 / Change in S TNF R1: over 52 weeks; for Change in IFN gamma / Change in Plasma TGF Beta / Change in TNF α / Change in YKL40: mean ± SD; for Change in BNP / Change in FGF23 / Change in IL1 / Change in S TNF R1: median and IQR
Protocol: as §3
In exploratory analysis, linear regression was performed to evaluate associations between baseline eGFR as the dependent variable and each biomarker at baseline as the independent variable. Skewed variables were natural log transformed, and each biomarker was evaluated as “per SD greater” to facilitate comparisons of strengths of association. Biomarker change scores were calculated as (end-of-study value—baseline level). Analysis of variance (ANOVA) was used to determine if the change in biomarker levels differed by randomized treatment assignment. It was also whether baseline biomarker levels were associated with eGFR change using multivariable linear regression. These models were adjusted for the other biomarkers and for clinical factors that are well established markers of progressive diabetic nephropathy, including age, sex, race, SBP, DBP, baseline ACR, and baseline eGFR.

[4] = tested on: subjects with diabetic nephropathy; assay: Pirfenidone trial: adverse events and study non-completion; assay type: in vivo, human; details: for non-completion: Aortic dilation / non-completion: Cancer / non-completion: Dialysis / non-completion: Fatigue / non-completion: Gastrointestinal symptoms / non-completion: Heart failure / non-completion: Rash / non-completion: Urinary tract infection: number of subjects (%)
Protocol: as §1
An analysis based on logistic regression models was conducted to determine whether this violates the assumption of missing completely at random (MCAR) 40. This included using baseline characteristics to predict dropout and using eGFR values at a particular visit to predict dropout at the next visit. The latter part of the logistic regression was fitted using generalized estimating equations (GEE) 41. All data analyses were conducted using R and STATA version 11.0 (College Station, Tex.)

[5] = tested on: subjects with diabetic nephropathy; assay: Urine metabolomics in subjects treated with pirfenidone; assay type: in vivo, human; details: second cohort of patients enrolled in a separate trial
Source text: Twenty-four hour urine was collected from both control and D-CKD subjects. A composite quantitative urine organic acid estimation was done using the Agilent 5973 […] and Mass spectrometry. Seventy-six different organic acids were looked at per sample and the results were standardized per mmol of creatinine.
Based on this study, the basis for why pirfenidone benefited some patients and not others was unclear. Despite available clinical data and protein biomarker studies there was little understanding on how to dose and prescribe this drug in a future study. Urine metabolomics was performed in subjects enrolled in this study at baseline and at 6 months after enrollment. A panel of metabolites based on a specific ratio added predictive value to the outcome on the drug. […] Similar approaches can be employed with other clinical trials to identify which patients will respond to drug, which patients will not, and identify potential new mechanisms. Additionally, metabolite profiles could predict adverse events in patients that are ongoing or will develop in the future.

[6] = tested on: patients with advanced and treatment-refractory focal segmental sclerosis; details: cited from earlier work
db/db mice = details: cited from earlier work

## Cc1ccc(=O)n(-c2ccccc2)c1 [pirfenidone]
[1]; 1200 mg
  eGFR Change, with imputation: 3.3 ± 8.5 ml/min/1.73 m^2
  eGFR Change: 3.3 ± 8.5 ml/min/1.73 m^2
[1]; 2400 mg
  eGFR Change, with imputation: −2.1 ± 6.4 ml/min/1.73 m^2
  eGFR Change: −1.9 ± 6.7 ml/min/1.73 m^2
[1]; pirfenidone 1200 mg group
  subjects who initiated hemodialysis during the study: 0
[1]; pirfenidone 1200 mg, baseline to end-of-study
  mean inter-group difference in eGFR change versus placebo: +5.5 ml/min per 1.73 m^2
[1]; pirfenidone 1200 mg, post-hoc two sample t-test
  difference in eGFR change versus placebo, baseline to month 6: 5.3 ml/min/1.73 m^2
[1]; pirfenidone 2400 mg/d, one year (54 weeks), mean±SD
  eGFR change during the course of the study: −1.9±6.7 ml/min per 1.73 m^2
[1]; pirfenidone 2400 mg, baseline to end-of-study
  mean difference in eGFR change versus placebo: 0.3 ml/min per 1.73 m^2
[2]; among study groups
  change in urine albumin/creatinine ratio (ACR) from baseline to end of study: no significant differences
[2]; in vivo
  albuminuria with treatment: did not decrease
[2]; pirfenidone 1200 mg group
  urine TGF-beta levels, increase over 12 months: 0.3 pg/mg
[2]; pirfenidone 2400 mg group
  urine TGF-beta levels, decline over 12 months: 0.1 pg/mg
[3]; 1200, n = 14
  Change in IFN gamma: 0.1 ± 1.9 pg/mL
  Change in Plasma TGF Beta: -2 ± 26 pg/mL
  Change in TNF α: -0.8 ± 2.2 pg/mL
  Change in YKL40: 6 ± 62 ng/mL
  Change in BNP: −22 (−114, 24) pg/ml
  Change in FGF23: −3 (−23, 33) RU/ml
  Change in IL1: 0.0 (−0.3, 0.4) pg/ml
  Change in S TNF R1: −140 (−497, 148) pg/ml
[3]; 2400, n = 14
  Change in IFN gamma: 0.2 ± 2.5 pg/mL
  Change in Plasma TGF Beta: 7 ± 17 pg/mL
  Change in TNF α: -0.7 ± 2.1 pg/mL
  Change in YKL40: 30 ± 43 ng/mL
  Change in BNP: 45 (−67, 312) pg/ml
  Change in FGF23: 13 (−6, 63) RU/ml
  Change in IL1: 0.0 (−0.2, 0.2) pg/ml
  Change in S TNF R1: 197 (−113, 420) pg/ml
[3]; in vivo
  change of inflammatory plasma biomarkers with treatment: none changed significantly
[4]; 1200 mg (n = 26)
  non-completion: Aortic dilation: 1 (4%)
  non-completion: Cancer: 0 (0%)
  non-completion: Dialysis: 0 (0%)
  non-completion: Fatigue: 0 (0%)
  non-completion: Gastrointestinal symptoms: 3 (13%)
  non-completion: Heart failure: 1 (4%)
  non-completion: Rash: 1 (4%)
  non-completion: Urinary tract infection: 0 (0%)
[4]; 2400 mg (n = 25)
  non-completion: Aortic dilation: 0 (0%)
  non-completion: Cancer: One subject
  non-completion: Dialysis: 1 (4%)
  non-completion: Fatigue: 3 (12%)
  non-completion: Gastrointestinal symptoms: 6 (25%)
  non-completion: Heart failure: 0 (0%)
  non-completion: Rash: 1 (4%)
  non-completion: Urinary tract infection: 1 (4%)
[4]; 2400 mg (n = 25), listed as Prifenidone
  non-completion: Cancer: 1 (4%)
[4]; pirfenidone groups compared to placebo
  incidence of gastrointestinal side effects and fatigue: appeared to be dose related
[4]; randomized to 1200
  Non-Completers, n (%): 9 (35%)
[4]; randomized to 2400
  Non-Completers, n (%): 11 (44%)
[5]
  urine citrate with interventional treatment: showed an increase
[6]; 2400 mg/d, FSGS open label study
  share of subjects who tolerated the dose: ⅔
[6]; compared to the rate of decline before pirfenidone
  reduction in the rate of estimated glomerular filtration rate (eGFR) decline: 25%
db/db mice; diabetic db/db mouse
  albuminuria: without lowering albuminuria
db/db mice; oral, after the onset of established diabetic kidney disease
  glomerulosclerosis: effective in reducing glomerulosclerosis
